Six molecules from patent US4812465A, “Triazole derivatives for use as antimycotic agents” (CL Pharma Aktiengesellschaft, priority 1986, dated 1989) can be followed below.

SMILES strings stand for the structures. Converted amounts (≈) assume the structure as drawn. Like-named read-outs stand apart in the source and are kept apart here.

What all share (assay): In vitro determination of minimum inhibitory concentration (MIC), serial dilution
Assay type in all cases: cell-based

One data set concerns Candida tropicalis. The following applies: 336 h. How it is done:
(§1) The antimycotic activities of the compounds were measured by in vitro determination of the minimum inhibitory concentration (MIC) for yeasts, molds and dermatophytes.
(§2) 6 dermatophytes, 2 yeasts and 4 molds were used for testing with fungi, as follows:
(§3) The minimum inhibitory concentration (MIC) was determined in serial dilution tests in test tubes. The volume of the liquid nutrient medium in each test tube was 4.5 ml.
(§4) The substances were dissolved in DMSO and diluted with sterile distilled water to 10 concentrations (100, 50, 25, 12.5, 6.25, 3.12, 1.56, 0.78, 0.39 and 0.19 μg/ml). 0.5 ml of each of these dilution steps was added to liquid nutrient medium. Thus, a constant concentration of solvent in all the nutrient media was ensured, irrespective of the active compound concentration.
(§5) A comparison solution which contained only the solvent in appropriate concentration was included when carrying out each of the tests.
(§6) The individual strains were maintained on Sabouraud/beerwort agar slants and, before they were used in a test, they underwent a passage on a modified Sabouraud liquid nutrient medium. The strains were then harvested, washed and converted into a suspension of McFaerland 3 in the case of yeasts and molds and of McFaerland 4-5 in the case of dermatophytes.
(§7) The amount of material inoculated (inoculum) was 100 μl/test tube (inoculated densities: yeasts about 10^3 /ml, molds about 10^4 /ml, dermatophytes about 10^4 /ml). The pH of the liquid nutrient medium was 6.0. After inoculation had taken place the fungi were incubated at 22° C. for 14 days.
(§8) The MIC was then determined. The concentration step at which growth was no longer visible on macroscopic inspection was used for the determination of the MIC. The comparison substance used was 1-(2-(2,4-dichlorophenyl)-2-(2,4-dichlorophenylmethoxy)ethyl)-1H-imidazole(compound A).

Another data set relates to Candida albicans. The settings on record: for MIC: 336 h. How it is done: as §1, §2, §3, §4, §5, §6, §7, §8
For a further data set, the system named is Microsporum gypseum. The settings on record: for MIC: Nannizzia gypsea, 336 h. How it is done: as §1, §2, §3, §4, §5, §6, §7, §8
Another data set has as its system Mucor mucedo minus. The settings on record: pH 6.0, 22° C., 14 days; for MIC: Mucor mucedo, 336 h, pH 6, Mucor mucedo minus; for MIC Mu.mu-: Mucor mucedo minus. On the procedure: as §1, §2, §3, §4, §5, §6, §7, §8
The test system of the next data set is Mucor mucedo plus. The settings on record: pH 6.0, 22° C., 14 days; for MIC: Mucor mucedo, 336 h, pH 6, Mucor mucedo plus; for MIC Mu.mu+: Mucor mucedo plus. On the procedure:
as §1, §2, §3, §4, §5, §6, §7, §8

The test system of a further data set is Trichophyton verrucosum. The settings on record: pH 6.0, 22° C., 14 days; for MIC: 336 h, pH 6, Trichophyton verrucosum. How it is done:
as §1, §2, §3, §4, §5, §6, §7, §8

Another data set concerns Epidermophyton floccosum. The settings on record: pH 6.0, 22° C., 14 days; for MIC: 336 h, pH 6, Epidermophyton floccosum. How it is done: as §1, §2, §3, §4, §5, §6, §7, §8
In another data set the test system is Microsporum canis. The following applies: 336 h, pH 6, Microsporum canis, pH 6.0, 22° C., 14 days. How it is done:
as §1, §2, §3, §4, §5, §6, §7, §8

A further data set deals with Trichophyton rubrum. The following applies: pH 6.0, 22° C., 14 days; for MIC: 336 h, pH 6, Trichophyton rubrum. How it is done: as §1, §2, §3, §4, §5, §6, §7, §8
The next data set relates to Absidia ramosa. The settings on record: pH 6.0, 22° C., 14 days; for MIC: Lichtheimia ramosa, 336 h, pH 6, Absidia ramosa; for MIC Abs.ra.: Absidia ramosa. How it is done: as §1, §2, §3, §4, §5, §6, §7, §8
A further data set deals with Aspergillus fumigatus. How it is done:
as §1, §2, §3, §4, §5, §6, §7, §8

For data set [1], the system named is Trichophyton mentagrophytes. The following applies: pH 6.0, 22° C., 14 days; for MIC: 336 h, pH 6, Trichophyton mentagrophytes. How it is done: as §1, §2, §3, §4, §5, §6, §7, §8
[2] abbreviates: pH 6, Candida tropicalis, pH 6.0, 22° C., 14 days, read-out: MIC C.trop.
Where [3] appears, read: pH 6, Candida albicans, pH 6.0, 22° C., 14 days, read-out: MIC C.alb.
Setting [4] is: pH 6, Microsporum gypseum, pH 6.0, 22° C., 14 days, read-out: MIC Mi.gyp.

In general, MIC refers to the least concentration at which growth counts as inhibited.

With `Clc1ccc(SCCCNC(Cn2ccnc2)c2cccc3ccccc23)cc1` (stereo not shown) [Compound 139], the MIC with Candida tropicalis (setting [2]) was determined as 12.5 µg/mL (≈ 29.6 µM); in the data set with Candida albicans (setting [3]), 3.12 µg/mL (≈ 7.39 µM); in the data set on Microsporum gypseum (setting [4]), 1.56 µg/mL (≈ 3.7 µM); in the data set with Mucor mucedo minus it was 3.12 µg/mL (≈ 7.39 µM); with Mucor mucedo plus it was 3.12 µg/mL; against Trichophyton verrucosum, 1.56 µg/mL (≈ 3.7 µM). Further, the MIC against Epidermophyton floccosum came out at 3.12 µg/mL (≈ 7.39 µM); against Microsporum canis, 1.56 µg/mL (≈ 3.7 µM); in the data set on Trichophyton rubrum, 1.56 µg/mL (≈ 3.7 µM); against Absidia ramosa, 3.12 µg/mL (≈ 7.39 µM); in data set [1], 3.12 µg/mL (≈ 7.39 µM). In addition, the “MIC Asp.fu.” value in the data set with Aspergillus fumigatus (20160 min, pH 6) is 3,12 μg/ml.
As for `Clc1ccc(COC(Cn2ccnc2)c2ccc(Cl)cc2Cl)c(Cl)c1` (stereo not shown) [A, 1-(2-(2,4-dichlorophenyl)-2-(2,4-dichlorophenylmethoxy)ethyl)-1H-imidazole, reference compound], the MIC in the data set with Candida tropicalis (pH 6, read-out: MIC C.trop) turned out to be 12.5 µg/mL (≈ 30 µM); in the data set on Candida albicans (pH 6, read-out: MIC C.alb) it was 12.5 µg/mL (≈ 30 µM); in the data set on Microsporum gypseum (pH 6, read-out: MIC Mi.gyp), 3.12 µg/mL (≈ 7.5 µM); against Mucor mucedo minus it was 12.5 µg/mL (≈ 30 µM); in the data set on Mucor mucedo plus it was 12.5 µg/mL; against Trichophyton verrucosum, 6.25 µg/mL (≈ 15 µM). Moreover, the minimal inhibitory concentration (MIC) with Epidermophyton floccosum is 1.56 µg/mL (≈ 3.75 µM); against Microsporum canis it was 6.25 µg/mL (≈ 15 µM); in the data set on Trichophyton rubrum, 6.25 µg/mL (≈ 15 µM); in the data set with Absidia ramosa it was 12.5 µg/mL (≈ 30 µM); in data set [1] it was 1.56 µg/mL (≈ 3.75 µM). The “MIC Asp.fu.” value in the data set on Aspergillus fumigatus (Aspergillus fumigatus, pH 6.0, 22° C., 14 days) is recorded as 3,12 μg/ml.
Take `Clc1ccc(C(Cn2cncn2)NCCCOc2c(Cl)cccc2Cl)c(Cl)c1` (stereo not shown) [Compound 72]: the MIC in the data set with Candida tropicalis (setting [2]) came to 3.12 µg/mL (≈ 6.78 µM); in the data set with Candida albicans (setting [3]), 3.12 µg/mL (≈ 6.78 µM); with Microsporum gypseum (setting [4]) it was 6.25 µg/mL (≈ 13.6 µM); with Mucor mucedo minus, 6.25 µg/mL (≈ 13.6 µM); in the data set on Mucor mucedo plus, 6.25 µg/mL; against Trichophyton verrucosum, 1.56 µg/mL (≈ 3.39 µM). Besides, the MIC in the data set on Epidermophyton floccosum came out at 6.25 µg/mL (≈ 13.6 µM); in the data set on Microsporum canis, 25 µg/mL (≈ 54.3 µM); in the data set with Trichophyton rubrum it was 3.12 µg/mL (≈ 6.78 µM); against Absidia ramosa, 100 µg/mL (≈ 217 µM); in [1], 25 µg/mL (≈ 54.3 µM). In the data set with Aspergillus fumigatus (20160 min, pH 6), the “MIC Asp.fu.” value is 3,12 μg/ml.
On to `Clc1ccc(C(Cn2ccnc2)NCCCSc2ccc(Br)cc2)c(Cl)c1` (stereo not shown) [Compound 1, 1-(2-(2,4-Dichlorophenyl)-2-(3-(4-bromophenylthio)propylamino)ethyl)-1H-imidazole], for which the “MIC C.alb” value against Candida albicans (pH 6.0, 22° C., 14 days) is listed as 3,12 μg/ml. Besides, in the data set on Microsporum gypseum (Microsporum gypseum, pH 6.0, 22° C., 14 days), the “MIC Mi.gyp” value is listed as 0,39 μg/ml. The “MIC Mu.mu-” value with Mucor mucedo minus was 6,25 μg/ml. For the same molecule, the “MIC Mu.mu+” value with Mucor mucedo plus is 6,25 μg/ml. Besides, the “MIC Tri.ve.” value against Trichophyton verrucosum was 0,30 μg/ml. Further, the “MIC Ep.flo” value with Epidermophyton floccosum is recorded as 0,78 μg/ml. Moreover, the “MIC Tri.ru.” value against Trichophyton rubrum is reported as 0,39 μg/ml. The “MIC Abs.ra.” value in the data set with Absidia ramosa is 3,12 μg/ml. Moreover, the “MIC Asp.fu.” value against Aspergillus fumigatus (20160 min, pH 6) was 1,56 μg/ml. The “MIC Tri.me.” value in data set [1] is 0,39 μg/ml.
As for `Clc1ccc(SCCNC(Cn2cncn2)c2ccc(Cl)cc2Cl)cc1` (stereo not shown) [Compound 33], the MIC in the data set with Candida tropicalis (setting [2]) came out at 6.25 µg/mL (≈ 14.6 µM); in the data set with Candida albicans (setting [3]), 12.5 µg/mL (≈ 29.2 µM); in the data set on Microsporum gypseum (setting [4]), 6.25 µg/mL (≈ 14.6 µM); with Mucor mucedo minus it was 3.12 µg/mL (≈ 7.29 µM); with Mucor mucedo plus it was 6.25 µg/mL; in the data set on Trichophyton verrucosum, 3.12 µg/mL (≈ 7.29 µM). In addition, the MIC against Epidermophyton floccosum was determined as 3.12 µg/mL (≈ 7.29 µM); against Microsporum canis it was 6.25 µg/mL (≈ 14.6 µM); in the data set with Trichophyton rubrum it was 3.12 µg/mL (≈ 7.29 µM); against Absidia ramosa it was 25 µg/mL (≈ 58.4 µM); in [1], 25 µg/mL (≈ 58.4 µM). For the same molecule, the “MIC Asp.fu.” value in the data set with Aspergillus fumigatus (20160 min, pH 6) is recorded as 25,0 μg/ml.
As for `Clc1ccc(C(Cn2ccnc2)NCCCSc2ccc(Br)cc2)c(Cl)c1` (stereo not shown) [Compound 105], the MIC with Candida tropicalis (setting [2]) was determined as 3.12 µg/mL (≈ 6.43 µM); with Candida albicans (setting [3]), 3.12 µg/mL (≈ 6.43 µM); in the data set with Microsporum gypseum (setting [4]), 0.39 µg/mL (≈ 0.804 µM); against Microsporum canis it was 0.78 µg/mL (≈ 1.61 µM). Besides, the “MIC Mu.mu-” value in the data set with Mucor mucedo minus is 3,12 μg/ml. For the same molecule, the “MIC Mu.mu+” value in the data set on Mucor mucedo plus was 3,12 μg/ml. The “MIC Tri.ve.” value in the data set on Trichophyton verrucosum is reported as 0,10 μg/ml. Moreover, the “MIC Ep.flo” value with Epidermophyton floccosum is listed as 0,10 μg/ml. Moreover, the “MIC Tri.ru.” value with Trichophyton rubrum is 0,10 μg/ml. In the data set on Absidia ramosa, the “MIC Abs.ra.” value is on record as 12,5 μg/ml. Further, the “MIC Asp.fu.” value in the data set with Aspergillus fumigatus (20160 min, pH 6) is on record as 0,39 μg/ml. For the same molecule, the “MIC Tri.me.” value in data set [1] is 0,10 μg/ml.
